Where two headings read alike, the source gives them in different places. Positions of bridges follow the written chain, without caps; N, C: chain ends. Non-standard residues stand in square brackets, D forms with d. Residues, ends and D or L forms follow the SMILES beside them. Gly(cPent) = N[C@H](C(=O)O)C1CCCC1; 3Pal = N[C@@H](Cc1cccnc1)C(=O)O; 2Thi = N[C@@H](Cc1cccs1)C(=O)O; Chg = N[C@H](C(=O)O)C1CCCCC1; Tle = CC(C)(C)[C@H](N)C(=O)O; hLeu = CC(C)CC[C@H](N)C(=O)O
Key:
Assay in all cases: cell-based
[1] = target: hNav1.7 (Homo sapiens, UniProt Q15858); format: cell-based; details: IonWorks Quattro, hNav1.7, read-out: IWQ Use Nav1.7
[2] = target: hNav1.5 (Homo sapiens, UniProt Q14524); details: IonWorks Quattro, hNav1.5, read-out: IWQ Use Nav1.5
[3] = target: hNav1.3 (Homo sapiens, UniProt Q9NY46); details: IonWorks Quattro, hNav1.3, read-out: IWQ Use Nav1.3
Sequence of hNav1.3 (Q9NY46 whole entry, looked up): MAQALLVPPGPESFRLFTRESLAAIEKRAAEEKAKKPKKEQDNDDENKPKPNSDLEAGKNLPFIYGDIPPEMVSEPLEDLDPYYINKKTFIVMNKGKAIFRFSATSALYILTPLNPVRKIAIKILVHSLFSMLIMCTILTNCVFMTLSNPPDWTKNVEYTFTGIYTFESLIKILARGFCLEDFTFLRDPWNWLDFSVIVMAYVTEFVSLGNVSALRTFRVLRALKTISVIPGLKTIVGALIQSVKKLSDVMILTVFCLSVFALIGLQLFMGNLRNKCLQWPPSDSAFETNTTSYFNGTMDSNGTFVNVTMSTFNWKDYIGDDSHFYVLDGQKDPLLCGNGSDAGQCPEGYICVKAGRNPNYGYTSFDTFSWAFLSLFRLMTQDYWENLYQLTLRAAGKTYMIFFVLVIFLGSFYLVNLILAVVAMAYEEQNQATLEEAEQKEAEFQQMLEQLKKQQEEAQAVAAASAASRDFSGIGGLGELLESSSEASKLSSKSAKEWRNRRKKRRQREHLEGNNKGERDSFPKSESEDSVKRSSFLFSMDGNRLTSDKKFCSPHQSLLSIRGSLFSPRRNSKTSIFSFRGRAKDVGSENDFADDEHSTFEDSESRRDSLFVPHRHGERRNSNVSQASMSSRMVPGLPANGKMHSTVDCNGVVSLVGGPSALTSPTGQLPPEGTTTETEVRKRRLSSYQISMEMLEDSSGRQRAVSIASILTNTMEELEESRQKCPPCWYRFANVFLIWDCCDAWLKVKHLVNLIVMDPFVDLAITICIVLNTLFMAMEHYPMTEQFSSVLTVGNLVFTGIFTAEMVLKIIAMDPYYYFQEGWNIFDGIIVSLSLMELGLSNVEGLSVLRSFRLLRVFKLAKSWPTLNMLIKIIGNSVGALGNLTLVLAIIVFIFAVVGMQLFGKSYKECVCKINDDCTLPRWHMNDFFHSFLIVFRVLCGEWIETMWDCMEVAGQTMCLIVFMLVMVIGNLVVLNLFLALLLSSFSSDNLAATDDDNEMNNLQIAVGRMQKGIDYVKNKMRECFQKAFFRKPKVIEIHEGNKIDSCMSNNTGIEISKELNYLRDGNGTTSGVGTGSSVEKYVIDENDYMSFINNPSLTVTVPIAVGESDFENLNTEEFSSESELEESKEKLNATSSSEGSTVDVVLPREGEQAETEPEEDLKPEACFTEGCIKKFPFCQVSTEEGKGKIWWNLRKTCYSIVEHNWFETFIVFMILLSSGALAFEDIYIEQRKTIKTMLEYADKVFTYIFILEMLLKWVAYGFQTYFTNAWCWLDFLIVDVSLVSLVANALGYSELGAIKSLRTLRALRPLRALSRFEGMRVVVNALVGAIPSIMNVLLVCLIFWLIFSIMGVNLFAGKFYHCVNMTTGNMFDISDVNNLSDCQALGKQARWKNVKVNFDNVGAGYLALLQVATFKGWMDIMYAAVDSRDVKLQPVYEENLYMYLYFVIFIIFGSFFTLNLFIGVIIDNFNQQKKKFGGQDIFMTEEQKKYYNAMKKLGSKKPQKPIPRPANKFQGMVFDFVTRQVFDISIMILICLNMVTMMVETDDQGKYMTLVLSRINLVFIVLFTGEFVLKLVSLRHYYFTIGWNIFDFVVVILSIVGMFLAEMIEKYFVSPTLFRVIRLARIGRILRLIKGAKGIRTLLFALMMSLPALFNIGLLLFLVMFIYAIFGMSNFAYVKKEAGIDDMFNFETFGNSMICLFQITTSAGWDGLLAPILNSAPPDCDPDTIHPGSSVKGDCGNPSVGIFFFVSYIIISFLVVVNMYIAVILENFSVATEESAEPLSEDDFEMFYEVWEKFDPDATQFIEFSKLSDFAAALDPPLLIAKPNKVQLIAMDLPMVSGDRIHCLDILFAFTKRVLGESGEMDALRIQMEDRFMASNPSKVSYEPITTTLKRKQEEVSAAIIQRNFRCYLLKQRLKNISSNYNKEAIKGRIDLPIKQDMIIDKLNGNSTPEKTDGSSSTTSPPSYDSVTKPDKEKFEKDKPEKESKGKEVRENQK

Sequence of hNav1.5 (Q14524 whole entry, looked up): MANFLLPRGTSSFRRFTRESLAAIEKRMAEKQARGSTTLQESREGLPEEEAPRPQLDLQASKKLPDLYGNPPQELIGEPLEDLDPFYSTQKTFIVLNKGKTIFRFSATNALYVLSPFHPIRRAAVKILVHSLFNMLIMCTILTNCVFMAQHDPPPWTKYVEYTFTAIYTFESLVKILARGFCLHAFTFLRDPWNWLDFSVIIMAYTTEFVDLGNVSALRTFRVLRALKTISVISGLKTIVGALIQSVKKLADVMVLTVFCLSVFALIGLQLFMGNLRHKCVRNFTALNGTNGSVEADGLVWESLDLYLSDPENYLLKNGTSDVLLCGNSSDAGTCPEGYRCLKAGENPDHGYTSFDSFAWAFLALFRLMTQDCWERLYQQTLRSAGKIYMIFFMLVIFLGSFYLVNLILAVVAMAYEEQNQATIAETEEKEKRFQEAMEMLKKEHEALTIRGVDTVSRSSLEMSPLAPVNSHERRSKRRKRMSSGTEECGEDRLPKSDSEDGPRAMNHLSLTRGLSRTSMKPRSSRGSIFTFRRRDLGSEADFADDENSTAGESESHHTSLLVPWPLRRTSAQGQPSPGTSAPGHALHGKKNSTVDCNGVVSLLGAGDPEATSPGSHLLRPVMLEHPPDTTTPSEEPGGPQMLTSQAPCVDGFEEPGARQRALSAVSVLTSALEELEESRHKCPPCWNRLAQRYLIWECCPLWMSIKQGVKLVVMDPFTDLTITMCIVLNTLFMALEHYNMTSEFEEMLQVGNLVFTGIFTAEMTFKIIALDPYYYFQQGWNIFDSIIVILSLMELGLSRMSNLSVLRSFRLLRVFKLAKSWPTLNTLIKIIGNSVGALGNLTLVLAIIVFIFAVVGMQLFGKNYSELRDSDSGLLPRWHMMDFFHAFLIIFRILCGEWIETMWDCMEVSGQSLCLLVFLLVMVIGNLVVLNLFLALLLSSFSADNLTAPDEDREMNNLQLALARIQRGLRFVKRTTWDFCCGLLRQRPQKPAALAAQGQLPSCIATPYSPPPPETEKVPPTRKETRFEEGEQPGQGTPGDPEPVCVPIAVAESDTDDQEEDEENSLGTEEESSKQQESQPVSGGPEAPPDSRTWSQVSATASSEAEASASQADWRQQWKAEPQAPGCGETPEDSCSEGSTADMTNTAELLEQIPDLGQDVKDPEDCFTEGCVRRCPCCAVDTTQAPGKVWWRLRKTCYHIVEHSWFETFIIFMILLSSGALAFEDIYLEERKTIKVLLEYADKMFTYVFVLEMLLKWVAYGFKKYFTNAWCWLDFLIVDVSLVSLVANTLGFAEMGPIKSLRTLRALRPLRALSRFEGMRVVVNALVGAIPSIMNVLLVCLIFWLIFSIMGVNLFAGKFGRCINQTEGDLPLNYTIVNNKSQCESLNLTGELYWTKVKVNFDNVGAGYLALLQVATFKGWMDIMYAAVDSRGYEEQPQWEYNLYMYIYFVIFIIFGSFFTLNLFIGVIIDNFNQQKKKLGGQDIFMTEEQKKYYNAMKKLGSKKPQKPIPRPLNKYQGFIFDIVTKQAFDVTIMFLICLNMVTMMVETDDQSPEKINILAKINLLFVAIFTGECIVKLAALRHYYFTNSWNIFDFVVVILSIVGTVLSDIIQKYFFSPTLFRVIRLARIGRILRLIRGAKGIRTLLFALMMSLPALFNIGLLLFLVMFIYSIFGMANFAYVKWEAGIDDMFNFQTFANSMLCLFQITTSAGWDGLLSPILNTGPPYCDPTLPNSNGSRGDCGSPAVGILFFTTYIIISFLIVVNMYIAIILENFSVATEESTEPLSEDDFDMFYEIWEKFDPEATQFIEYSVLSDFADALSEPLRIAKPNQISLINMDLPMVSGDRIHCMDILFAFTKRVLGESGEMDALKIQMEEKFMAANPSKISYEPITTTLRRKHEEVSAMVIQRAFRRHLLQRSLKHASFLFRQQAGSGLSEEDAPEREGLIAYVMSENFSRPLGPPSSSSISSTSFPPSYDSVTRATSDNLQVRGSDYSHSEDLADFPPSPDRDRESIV

Compound: CC[C@H](C)[C@@H]1NC(=O)[C@@H]2CSSC[C@@H]3NC(=O)[C@H](C(C)C)NC(=O)[C@H](CC(C)C)NC(=O)[C@H](CC(N)=O)NC(=O)[C@@H]4CCCN4C(=O)[C@H](CCCNC(=N)N)NC(=O)[C@H](CSSC[C@H](NC(=O)[C@@H](N)CC(=O)O)C(=O)N[C@@H](CC(C)C)C(=O)NCC(=O)N[C@@H](C(C)(C)C)C(=O)N[C@@H](Cc4ccccc4)C(=O)N[C@@H](CCCNC(=N)N)C(=O)N[C@@H](CCCCN)C(=O)N2)NC(=O)[C@H](CSSC[C@@H](C(=O)N[C@@H](CCCCN)C(=O)N[C@@H](Cc2ccc(O)cc2)C(=O)N[C@H](C(=O)N[C@@H](Cc2ccccc2)C(N)=O)C(C)C)NC(=O)[C@H](Cc2c[nH]c4ccccc24)NC(=O)[C@H](CCCCN)NC(=O)[C@H](Cc2c[nH]cn2)NC(=O)[C@H]([C@@H](C)O)NC(=O)[C@H](CCCNC(=N)N)NC(=O)[C@H](CO)NC3=O)NC(=O)[C@H](CCCCN)NC(=O)[C@H](CC(=O)O)NC(=O)[C@H](CC(N)=O)NC(=O)[C@H](CC(=O)O)NC(=O)[C@@H]2CCCN2C1=O [compound 609] (H-DCLG[Tle]FRKCIPDNDKCCRPNLVCSRTHKWCKYVF-NH2; disulfide 2-17, 9-23, 16-30)
- IC50 ([1]; use-dependent block): 81 nM
- IC50 ([2]; use-dependent block): 6700 nM
- IC50 ([3]; use-dependent block): 260 nM

Compound: CC[C@H](C)[C@@H]1NC(=O)[C@@H]2CSSC[C@@H]3NC(=O)[C@H](C(C)C)NC(=O)[C@H](CC(C)C)NC(=O)[C@H](CC(N)=O)NC(=O)[C@@H]4CCCN4C(=O)[C@H](CCCNC(=N)N)NC(=O)[C@H](CSSC[C@H](NC(=O)[C@@H](N)CC(=O)O)C(=O)N[C@@H](CC(C)C)C(=O)NCC(=O)N[C@@H](CCC(C)C)C(=O)N[C@@H](Cc4ccccc4)C(=O)N[C@@H](CCCNC(=N)N)C(=O)N[C@@H](CCCCN)C(=O)N2)NC(=O)[C@H](CSSC[C@@H](C(=O)N[C@@H](CCCCN)C(=O)N[C@@H](Cc2ccc(O)cc2)C(=O)N[C@H](C(=O)N[C@@H](Cc2ccccc2)C(N)=O)C(C)C)NC(=O)[C@H](Cc2c[nH]c4ccccc24)NC(=O)[C@H](CCCCN)NC(=O)[C@H](Cc2c[nH]cn2)NC(=O)[C@H]([C@@H](C)O)NC(=O)[C@H](CCCNC(=N)N)NC(=O)[C@H](CO)NC3=O)NC(=O)[C@H](CCCCN)NC(=O)[C@H](CC(=O)O)NC(=O)[C@H](CC(N)=O)NC(=O)[C@H](CC(=O)O)NC(=O)[C@@H]2CCCN2C1=O [compound 610] (H-DCLG[hLeu]FRKCIPDNDKCCRPNLVCSRTHKWCKYVF-NH2; disulfide 2-17, 9-23, 16-30)
- IC50 ([1]; use-dependent block): 11 nM
- IC50 ([2]; use-dependent block): 8200 nM
- IC50 ([3]; use-dependent block): 41 nM

Compound: CC[C@H](C)[C@@H]1NC(=O)[C@@H]2CSSC[C@@H]3NC(=O)[C@H](C(C)C)NC(=O)[C@H](CC(C)C)NC(=O)[C@H](CC(N)=O)NC(=O)[C@@H]4CCCN4C(=O)[C@H](CCCNC(=N)N)NC(=O)[C@H](CSSC[C@H](NC(=O)[C@@H](N)CC(=O)O)C(=O)N[C@@H](CC(C)C)C(=O)NCC(=O)N[C@@H](CCSC)C(=O)N[C@@H](Cc4ccccc4)C(=O)N[C@@H](CCCNC(=N)N)C(=O)N[C@@H](CCCCN)C(=O)N2)NC(=O)[C@H](CSSC[C@@H](C(=O)N[C@@H](CCCCN)C(=O)N[C@@H](Cc2ccc(O)cc2)C(=O)N[C@H](C(=O)N[C@@H](Cc2ccccc2)C(N)=O)C(C)C)NC(=O)[C@H](Cc2c[nH]c4ccccc24)NC(=O)[C@H](CCCCN)NC(=O)[C@H](Cc2c[nH]cn2)NC(=O)[C@H]([C@@H](C)O)NC(=O)[C@H](CCCNC(=N)N)NC(=O)[C@H](CO)NC3=O)NC(=O)[C@H](CCCCN)NC(=O)[C@H](CC(=O)O)NC(=O)[C@H](CC(N)=O)NC(=O)[C@H](CC(=O)O)NC(=O)[C@@H]2CCCN2C1=O [compound 611] (H-DCLGMFRKCIPDNDKCCRPNLVCSRTHKWCKYVF-NH2; disulfide 2-17, 9-23, 16-30)
- IC50 ([1]; use-dependent block): 43 nM
- IC50 ([2]; use-dependent block): 13300 nM
- IC50 ([3]; use-dependent block): 110 nM

Compound: CC[C@H](C)[C@@H]1NC(=O)[C@@H]2CSSC[C@@H]3NC(=O)[C@H](C(C)C)NC(=O)[C@H](CC(C)C)NC(=O)[C@H](CC(N)=O)NC(=O)[C@@H]4CCCN4C(=O)[C@H](CCCNC(=N)N)NC(=O)[C@H](CSSC[C@H](NC(=O)[C@@H](N)CC(=O)O)C(=O)N[C@@H](CC(C)C)C(=O)NCC(=O)N[C@@H](CC(C)C)C(=O)N[C@@H](Cc4ccccc4)C(=O)N[C@@H](CCCNC(=N)N)C(=O)N[C@@H](CCCCN)C(=O)N2)NC(=O)[C@H](CSSC[C@@H](C(=O)N[C@@H](CCCCN)C(=O)N[C@@H](Cc2ccc(O)cc2)C(=O)N[C@H](C(=O)N[C@@H](Cc2ccccc2)C(N)=O)C(C)C)NC(=O)[C@H](Cc2c[nH]c4ccccc24)NC(=O)[C@H](CCCCN)NC(=O)[C@H](Cc2c[nH]cn2)NC(=O)[C@H]([C@@H](C)O)NC(=O)[C@H](CCCNC(=N)N)NC(=O)[C@H](CO)NC3=O)NC(=O)[C@H](CCCCN)NC(=O)[C@H](CC(=O)O)NC(=O)[C@H](CC(N)=O)NC(=O)[C@H](CC(=O)O)NC(=O)[C@@H]2CCCN2C1=O [compound 612] (H-DCLGLFRKCIPDNDKCCRPNLVCSRTHKWCKYVF-NH2; disulfide 2-17, 9-23, 16-30)
- IC50 ([1]; use-dependent block): 57 nM
- IC50 ([2]; use-dependent block): 20100 nM
- IC50 ([3]; use-dependent block): 220 nM

Compound: CC[C@H](C)[C@@H]1NC(=O)[C@@H]2CSSC[C@@H]3NC(=O)[C@H](C(C)C)NC(=O)[C@H](CC(C)C)NC(=O)[C@H](CC(N)=O)NC(=O)[C@@H]4CCCN4C(=O)[C@H](CCCNC(=N)N)NC(=O)[C@H](CSSC[C@H](NC(=O)[C@@H](N)CC(=O)O)C(=O)N[C@@H](CC(C)C)C(=O)NCC(=O)N[C@@H](Cc4cccnc4)C(=O)N[C@@H](Cc4ccccc4)C(=O)N[C@@H](CCCNC(=N)N)C(=O)N[C@@H](CCCCN)C(=O)N2)NC(=O)[C@H](CSSC[C@@H](C(=O)N[C@@H](CCCCN)C(=O)N[C@@H](Cc2ccc(O)cc2)C(=O)N[C@H](C(=O)N[C@@H](Cc2ccccc2)C(N)=O)C(C)C)NC(=O)[C@H](Cc2c[nH]c4ccccc24)NC(=O)[C@H](CCCCN)NC(=O)[C@H](Cc2c[nH]cn2)NC(=O)[C@H]([C@@H](C)O)NC(=O)[C@H](CCCNC(=N)N)NC(=O)[C@H](CO)NC3=O)NC(=O)[C@H](CCCCN)NC(=O)[C@H](CC(=O)O)NC(=O)[C@H](CC(N)=O)NC(=O)[C@H](CC(=O)O)NC(=O)[C@@H]2CCCN2C1=O [compound 613] (H-DCLG[3Pal]FRKCIPDNDKCCRPNLVCSRTHKWCKYVF-NH2; disulfide 2-17, 9-23, 16-30)
- IC50 ([1]; use-dependent block): 950 nM
- IC50 ([2]; use-dependent block): 18700 nM
- IC50 ([3]; use-dependent block): 3600 nM

Compound: CC[C@H](C)[C@@H]1NC(=O)[C@@H]2CSSC[C@@H]3NC(=O)[C@H](C(C)C)NC(=O)[C@H](CC(C)C)NC(=O)[C@H](CC(N)=O)NC(=O)[C@@H]4CCCN4C(=O)[C@H](CCCNC(=N)N)NC(=O)[C@H](CSSC[C@H](NC(=O)[C@@H](N)CC(=O)O)C(=O)N[C@@H](CC(C)C)C(=O)NCC(=O)N[C@@H](Cc4cccs4)C(=O)N[C@@H](Cc4ccccc4)C(=O)N[C@@H](CCCNC(=N)N)C(=O)N[C@@H](CCCCN)C(=O)N2)NC(=O)[C@H](CSSC[C@@H](C(=O)N[C@@H](CCCCN)C(=O)N[C@@H](Cc2ccc(O)cc2)C(=O)N[C@H](C(=O)N[C@@H](Cc2ccccc2)C(N)=O)C(C)C)NC(=O)[C@H](Cc2c[nH]c4ccccc24)NC(=O)[C@H](CCCCN)NC(=O)[C@H](Cc2c[nH]cn2)NC(=O)[C@H]([C@@H](C)O)NC(=O)[C@H](CCCNC(=N)N)NC(=O)[C@H](CO)NC3=O)NC(=O)[C@H](CCCCN)NC(=O)[C@H](CC(=O)O)NC(=O)[C@H](CC(N)=O)NC(=O)[C@H](CC(=O)O)NC(=O)[C@@H]2CCCN2C1=O [compound 614] (H-DCLG[2Thi]FRKCIPDNDKCCRPNLVCSRTHKWCKYVF-NH2; disulfide 2-17, 9-23, 16-30)
- IC50 ([1]; use-dependent block): 12 nM
- IC50 ([2]; use-dependent block): 4100 nM
- IC50 ([3]; use-dependent block): 77 nM

Compound: CC[C@H](C)[C@@H]1NC(=O)[C@@H]2CSSC[C@@H]3NC(=O)[C@H](C(C)C)NC(=O)[C@H](CC(C)C)NC(=O)[C@H](CC(N)=O)NC(=O)[C@@H]4CCCN4C(=O)[C@H](CCCNC(=N)N)NC(=O)[C@H](CSSC[C@H](NC(=O)[C@@H](N)CC(=O)O)C(=O)N[C@@H](CC(C)C)C(=O)NCC(=O)N[C@@H](C4CCCC4)C(=O)N[C@@H](Cc4ccccc4)C(=O)N[C@@H](CCCNC(=N)N)C(=O)N[C@@H](CCCCN)C(=O)N2)NC(=O)[C@H](CSSC[C@@H](C(=O)N[C@@H](CCCCN)C(=O)N[C@@H](Cc2ccc(O)cc2)C(=O)N[C@H](C(=O)N[C@@H](Cc2ccccc2)C(N)=O)C(C)C)NC(=O)[C@H](Cc2c[nH]c4ccccc24)NC(=O)[C@H](CCCCN)NC(=O)[C@H](Cc2c[nH]cn2)NC(=O)[C@H]([C@@H](C)O)NC(=O)[C@H](CCCNC(=N)N)NC(=O)[C@H](CO)NC3=O)NC(=O)[C@H](CCCCN)NC(=O)[C@H](CC(=O)O)NC(=O)[C@H](CC(N)=O)NC(=O)[C@H](CC(=O)O)NC(=O)[C@@H]2CCCN2C1=O [compound 615] (H-DCLG[Gly(cPent)]FRKCIPDNDKCCRPNLVCSRTHKWCKYVF-NH2; disulfide 2-17, 9-23, 16-30)
- IC50 ([1]; use-dependent protocol): 35 nM
- IC50 ([2]; use-dependent protocol): 5600 nM
- IC50 ([3]; use-dependent protocol): 120 nM

Compound: CC[C@H](C)[C@@H]1NC(=O)[C@@H]2CSSC[C@@H]3NC(=O)[C@H](C(C)C)NC(=O)[C@H](CC(C)C)NC(=O)[C@H](CC(N)=O)NC(=O)[C@@H]4CCCN4C(=O)[C@H](CCCNC(=N)N)NC(=O)[C@H](CSSC[C@H](NC(=O)[C@@H](N)CC(=O)O)C(=O)N[C@@H](CC(C)C)C(=O)NCC(=O)N[C@@H](C4CCCCC4)C(=O)N[C@@H](Cc4ccccc4)C(=O)N[C@@H](CCCNC(=N)N)C(=O)N[C@@H](CCCCN)C(=O)N2)NC(=O)[C@H](CSSC[C@@H](C(=O)N[C@@H](CCCCN)C(=O)N[C@@H](Cc2ccc(O)cc2)C(=O)N[C@H](C(=O)N[C@@H](Cc2ccccc2)C(N)=O)C(C)C)NC(=O)[C@H](Cc2c[nH]c4ccccc24)NC(=O)[C@H](CCCCN)NC(=O)[C@H](Cc2c[nH]cn2)NC(=O)[C@H]([C@@H](C)O)NC(=O)[C@H](CCCNC(=N)N)NC(=O)[C@H](CO)NC3=O)NC(=O)[C@H](CCCCN)NC(=O)[C@H](CC(=O)O)NC(=O)[C@H](CC(N)=O)NC(=O)[C@H](CC(=O)O)NC(=O)[C@@H]2CCCN2C1=O [compound 616] (H-DCLG[Chg]FRKCIPDNDKCCRPNLVCSRTHKWCKYVF-NH2; disulfide 2-17, 9-23, 16-30)
- IC50 ([1]; use-dependent protocol): 23 nM
- IC50 ([2]; use-dependent protocol): 6900 nM
- IC50 ([3]; use-dependent protocol): 75 nM

Source: patent US9340590B2 (priority 2011, dated 2016)
